Laboratory results as given in ChEMBL document CHEMBL1201862, “PubChem BioAssay data set” (2004).
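Cells were grown in 96-well plates and exposed to each compound for 48 hours at five concentrations; endpoints were interpolated linearly between bracketing concentrations, or set to the highest concentration if not reached. GI50 = concentration required for 50% inhibition of growth.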 Activity calls are given as the source filed them. No stated cut-off is given here; in the data, active = GI50 up to about 1.1 µM and inactive = higher.

Assays:
Experiment in all cases: DTP human tumour cell line panel, 48 h
A549 = tested on: A549
CCRF-CEM = tested on: CCRF-CEM
EKVX = tested on: EKVX
HCT-15 = tested on: HCT-15
HL-60 = tested on: HL-60
MOLT-4 = tested on: MOLT-4
Malme-3M = tested on: Malme-3M
NCI-H226 = tested on: NCI-H226
NCI-H522 = tested on: NCI-H522
NCI/ADR-RES = tested on: NCI/ADR-RES
OVCAR-5 = tested on: OVCAR-5
OVCAR-8 = tested on: OVCAR-8
SF-268 = tested on: SF-268
SF-539 = tested on: SF-539
SK-MEL-28 = tested on: SK-MEL-28
SK-OV-3 = tested on: SK-OV-3
SNB-19 = tested on: SNB-19
T47D = tested on: T47D
U-251 = tested on: U-251

Structure (SMILES)	GI50 (A549)	GI50 (CCRF-CEM)	GI50 (EKVX)	GI50 (HCT-15)	GI50 (HL-60)	GI50 (MOLT-4)	GI50 (Malme-3M)	GI50 (NCI-H226)	GI50 (NCI-H522)	GI50 (NCI/ADR-RES)	GI50 (OVCAR-5)	GI50 (OVCAR-8)	GI50 (SF-268)	GI50 (SF-539)	GI50 (SK-MEL-28)	GI50 (SK-OV-3)	GI50 (SNB-19)	GI50 (T47D)	GI50 (U-251)
CCOC(=O)NC(NNc1ccc([N+](=O)[O-])cc1[N+](=O)[O-])(C(F)(F)F)C(F)(F)F	47 µM (inactive)	20.6 µM (inactive)	41.8 µM (inactive)	27.9 µM	14.4 µM (inactive)	28.1 µM (inactive)	53.3 µM (inactive)	36 µM (inactive)	30.5 µM (inactive)	33.3 µM (inactive)	46 µM (inactive)	30.8 µM (inactive)	43.4 µM (inactive)	22.5 µM (inactive)	52.4 µM (inactive)	23.4 µM (inactive)	35.2 µM (inactive)	35.1 µM (inactive)	22 µM (inactive)
O=C(O)C1CCCCN1C(=O)Cc1c[nH]c2ccccc12 (stereo not given)	> 100 µM (inactive)	> 100 µM (inactive)	> 100 µM (inactive)	> 100 µM	> 100 µM (inactive)	> 100 µM (inactive)	> 100 µM (inactive)	> 100 µM (inactive)	> 100 µM (inactive)	> 100 µM (inactive)	> 100 µM (inactive)	> 100 µM (inactive)	> 100 µM (inactive)	> 100 µM (inactive)	> 100 µM (inactive)	> 100 µM (inactive)	> 100 µM (inactive)	> 100 µM (inactive)	> 100 µM (inactive)
Cc1ccc(C)c(NC(=O)C(=O)C(c2cnc3ccc([N+](=O)[O-])cc3n2)[N+](=O)[O-])c1 (stereo not given)	58.3 µM (inactive)	24.4 µM (inactive)	30.8 µM (inactive)	76.6 µM	14.9 µM (inactive)	25.9 µM (inactive)	> 100 µM (inactive)	34.1 µM (inactive)	21.1 µM (inactive)	25.8 µM (inactive)	> 100 µM (inactive)	27 µM (inactive)	> 100 µM (inactive)	> 100 µM (inactive)	> 100 µM (inactive)	32.4 µM (inactive)	> 100 µM (inactive)	38.5 µM (inactive)	40.8 µM (inactive)
C[C@@H]1[C@@H](c2ccccc2)O[B-](c2ccccc2)(c2ccccc2)[N+]1(C)C	> 100 µM (inactive)	61.4 µM (inactive)	> 100 µM (inactive)	58.7 µM	66.1 µM (inactive)	> 100 µM (inactive)	78 µM (inactive)	41 µM (inactive)	58.2 µM (inactive)	> 100 µM (inactive)	> 100 µM (inactive)	99.5 µM (inactive)	> 100 µM (inactive)	55.7 µM (inactive)	58.3 µM (inactive)	> 100 µM (inactive)	> 100 µM (inactive)	54.5 µM (inactive)	> 100 µM (inactive)
COc1ccccc1-c1cc(O)c2cccnc2n1	55 µM (inactive)	22.9 µM (inactive)	53.6 µM (inactive)	23.7 µM	39.3 µM (inactive)	35.2 µM (inactive)	37.8 µM (inactive)	49.7 µM (inactive)	46.9 µM (inactive)	37 µM (inactive)	> 100 µM (inactive)	37.7 µM (inactive)	72.4 µM (inactive)	56.9 µM (inactive)	82 µM (inactive)	58.1 µM (inactive)	69.2 µM (inactive)	69.7 µM (inactive)	40.3 µM (inactive)
